*1 amine or outer side, *2 acyl side, *3 side chain or, on linkers, in order; H or OH if unused. Where a SMILES comes first, the peptide text is derived from it. [ ]: non-standard residue; d: D form. Ala(2-NH2-benzothiazol-6-yl) = Nc1nc2ccc(C[C@H](N)C(=O)O)cc2s1; Phe(2,6-Me2,4-CONH2) = Cc1cc(C(N)=O)cc(C)c1C[C@H](N)C(=O)O; Phe(3-CONH2) = NC(=O)c1cccc(C[C@H](N)C(=O)O)c1; Phe(4-CONH2) = NC(=O)c1ccc(C[C@H](N)C(=O)O)cc1; X1 = O=C([C@H](Cc1cc[n+]([O-])cc1)N[*:1])[*:2]
Tests used:
[1] = molecular target: T1, Delta-type opioid receptor (Homo sapiens, UniProt P41143); format: functional
T1 sequence (P41143 whole entry): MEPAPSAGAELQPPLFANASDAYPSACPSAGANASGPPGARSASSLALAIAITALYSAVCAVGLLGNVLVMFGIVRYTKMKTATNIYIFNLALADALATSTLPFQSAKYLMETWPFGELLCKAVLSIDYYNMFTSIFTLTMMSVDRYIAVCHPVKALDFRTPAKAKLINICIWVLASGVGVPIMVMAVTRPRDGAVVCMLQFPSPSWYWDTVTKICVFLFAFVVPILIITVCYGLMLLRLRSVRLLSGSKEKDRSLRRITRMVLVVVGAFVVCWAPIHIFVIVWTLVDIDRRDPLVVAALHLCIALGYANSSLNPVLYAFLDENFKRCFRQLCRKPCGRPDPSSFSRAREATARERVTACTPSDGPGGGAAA

[2] = molecular target: T2, Mu-type opioid receptor (Homo sapiens, UniProt P35372)
T2 sequence (P35372 whole entry): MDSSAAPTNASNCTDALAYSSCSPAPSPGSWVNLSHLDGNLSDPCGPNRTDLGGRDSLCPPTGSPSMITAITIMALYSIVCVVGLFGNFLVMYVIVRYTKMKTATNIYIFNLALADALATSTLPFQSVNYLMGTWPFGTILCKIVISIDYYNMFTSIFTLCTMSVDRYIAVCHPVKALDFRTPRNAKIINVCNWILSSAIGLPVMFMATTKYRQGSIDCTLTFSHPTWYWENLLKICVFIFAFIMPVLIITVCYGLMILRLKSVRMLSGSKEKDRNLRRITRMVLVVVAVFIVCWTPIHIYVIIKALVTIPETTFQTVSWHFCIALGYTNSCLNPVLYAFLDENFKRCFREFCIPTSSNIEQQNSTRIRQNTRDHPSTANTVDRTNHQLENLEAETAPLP

[3] = molecular target: T1, Delta-type opioid receptor
[4] = molecular target: Kappa-type opioid receptor (Homo sapiens, UniProt P41145)
Kappa-type opioid receptor, sequence (P41145 whole entry): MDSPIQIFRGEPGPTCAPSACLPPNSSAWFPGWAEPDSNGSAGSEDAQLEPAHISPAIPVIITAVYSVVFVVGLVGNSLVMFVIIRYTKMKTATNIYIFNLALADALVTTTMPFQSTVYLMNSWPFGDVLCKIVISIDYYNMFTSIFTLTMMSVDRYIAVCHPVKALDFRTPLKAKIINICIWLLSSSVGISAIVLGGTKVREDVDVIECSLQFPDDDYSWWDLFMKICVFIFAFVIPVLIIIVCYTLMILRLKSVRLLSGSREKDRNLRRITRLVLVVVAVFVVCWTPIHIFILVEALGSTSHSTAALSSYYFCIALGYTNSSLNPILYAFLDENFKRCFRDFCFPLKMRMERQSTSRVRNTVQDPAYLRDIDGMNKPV

[5] = molecular target: T2, Mu-type opioid receptor; format: functional

Row | SMILES | EC50 [1] | Ki [2] | Ki [3] | Ki [4] | EC50 [5]
1 | CC(C)C[C@H](NC(=O)[C@H](Cc1ccccc1)NC(=O)CNC(=O)[C@@H](CO)NC(=O)[C@@H](N)Cc1cccc(C(N)=O)c1)C(=O)N[C@H](C(=O)O)[C@@H](C)O | 0.73 µM | 1.1 µM | 0.042 µM | > 10 µM | 
2 | CC(C)C[C@H](NC(=O)[C@H](Cc1ccccc1)NC(=O)CNC(=O)CNC(=O)[C@@H](N)Cc1cc[n+]([O-])cc1)C(=O)O (H-[X1]GGFL-OH) |  | > 10 µM | > 10 µM | > 10 µM | 
3 | CC(C)C[C@@H](NC(=O)[C@H](Cc1ccccc1)NC(=O)CNC(=O)[C@@H](C)NC(=O)[C@@H](N)Cc1ccc(N)cc1)C(=O)O | 0.074 µM | 1.4 µM | 0.019 µM | > 10 µM | 
4 | Cc1cc(C(N)=O)cc(C)c1C[C@H](N)C(=O)N[C@H](C)C(=O)NCC(=O)N[C@@H](Cc1ccccc1)C(=O)N[C@H](CC(C)C)C(=O)O | 0.0025 µM | 0.0098 µM | 0.00078 µM | 2.4 µM | 0.049 µM
5 | CSCC[C@H](NC(=O)[C@H](Cc1ccccc1)NC(=O)CNC(=O)[C@@H](C)NC(=O)[C@@H](N)Cc1ccc2nc(N)sc2c1)C(=O)O | 0.024 µM | 0.1 µM | 0.001 µM | > 10 µM | 0.35 µM
6 | CSCC[C@H](NC(=O)[C@H](Cc1ccccc1)NC(=O)CNC(=O)CNC(=O)[C@@H](N)Cc1ccc(C(N)=O)cc1)C(N)=O (H-[Phe(4-CONH2)]GGFM-NH2) | 0.01 µM | 0.018 µM | 0.0013 µM | 0.46 µM | 0.27 µM
7 | CC(C)C[C@@H](NC(=O)[C@H](Cc1ccccc1)NC(=O)CNC(=O)[C@@H](C)NC(=O)[C@@H](N)Cc1cccc(C(N)=O)c1)C(=O)O | 1.7 µM | 0.56 µM | 0.17 µM | > 10 µM | 
8 | Cc1cc(C(N)=O)cc(C)c1C[C@H](N)C(=O)NCC(=O)NCC(=O)N[C@@H](Cc1ccccc1)C(=O)N[C@@H](CC(C)C)C(=O)O (H-[Phe(2,6-Me2,4-CONH2)]GGFL-OH) | 0.0041 µM | 0.0098 µM | 0.001 µM | 1.3 µM | 0.18 µM
9 | CC(C)C[C@H](NC(=O)[C@H](Cc1ccccc1)NC(=O)CNC(=O)[C@@H](CO)NC(=O)[C@@H](N)Cc1ccc2nc(N)sc2c1)C(=O)N[C@H](C(=O)O)[C@@H](C)O | 0.097 µM | 0.64 µM | 0.0038 µM | > 10 µM | 
10 | CC(C)C[C@H](NC(=O)[C@H](Cc1ccccc1)NC(=O)CNC(=O)CNC(=O)[C@@H](N)Cc1cccc(C(N)=O)c1)C(=O)O (H-[Phe(3-CONH2)]GGFL-OH) |  | > 10 µM | 0.475 µM | > 10 µM | 
11 | CC(C)C[C@H](NC(=O)[C@H](Cc1ccccc1)NC(=O)CNC(=O)[C@@H](CO)NC(=O)[C@@H](N)Cc1cc[n+]([O-])cc1)C(=O)N[C@H](C(=O)O)[C@@H](C)O |  | > 10 µM | 0.36 µM | > 10 µM | 
12 | Cc1cc(C(N)=O)cc(C)c1C[C@H](N)C(=O)N[C@H](CO)C(=O)NCC(=O)N[C@@H](Cc1ccccc1)C(=O)N[C@@H](CC(C)C)C(=O)N[C@H](C(=O)O)[C@@H](C)O | 0.0035 µM | 0.019 µM | 0.0012 µM | > 10 µM | 0.25 µM
13 | CSCC[C@H](NC(=O)[C@H](Cc1ccccc1)NC(=O)CNC(=O)CNC(=O)[C@@H](N)Cc1ccc(O)cc1)C(=O)O |  |  |  | > 10 µM | 
14 | CC(C)C[C@@H](NC(=O)[C@H](Cc1ccccc1)NC(=O)CNC(=O)[C@@H](C)NC(=O)[C@@H](N)Cc1ccc2nc(N)sc2c1)C(=O)O | 0.15 µM | 1.2 µM | 0.01 µM | > 10 µM | 
15 | CC(C)C[C@@H](NC(=O)[C@H](Cc1ccccc1)NC(=O)CNC(=O)[C@@H](C)NC(=O)[C@@H](N)Cc1cc[n+]([O-])cc1)C(=O)O |  | > 10 µM | > 10 µM | > 10 µM | 
16 | CSCC[C@H](NC(=O)[C@H](Cc1ccccc1)NC(=O)CNC(=O)CNC(=O)[C@@H](N)Cc1ccc(C(N)=O)cc1)C(=O)O (H-[Phe(4-CONH2)]GGFM-OH) | 0.0052 µM | 0.028 µM | 0.0018 µM | 1.03 µM | 0.14 µM
17 | CC(C)C[C@@H](NC(=O)[C@H](Cc1ccccc1)NC(=O)CNC(=O)[C@@H](C)NC(=O)[C@@H](N)Cc1ccc(C(=O)O)cc1)C(=O)O |  | > 10 µM | 1.1 µM | > 10 µM | 
18 | CC1(C)SSC(C)(C)[C@@H](NC(=O)[C@@H](N)Cc2ccc(C(N)=O)cc2)C(=O)NCC(=O)N[C@@H](Cc2ccccc2)C(=O)N[C@H]1C(=O)O | 0.32 µM | > 10 µM | 0.019 µM | > 10 µM | 
19 | CSCC[C@H](NC(=O)[C@H](Cc1ccccc1)NC(=O)CNC(=O)CNC(=O)[C@@H](N)Cc1ccc(O)cc1)C(N)=O |  |  |  | 0.21 µM | 
20 | CC(C)C[C@H](NC(=O)[C@H](Cc1ccccc1)NC(=O)CNC(=O)CNC(=O)[C@@H](N)Cc1ccc2nc(N)sc2c1)C(=O)O (H-[Ala(2-NH2-benzothiazol-6-yl)]GGFL-OH) | 0.58 µM | 1.2 µM | 0.019 µM | > 10 µM | 
